This note sets out measurements from patent publication US12187709B2 (Genentech, Inc., priority 2021, dated 2025).

As usually defined, the IC50 is the midpoint of a concentration-inhibition curve.

One test deals with c-Cbl (Homo sapiens (Human), UniProt P22681). In words: C-Cbl LCK Ub TR-FRET assay (C-cbl Lck HTRF). The format is biochemical. Put shortly: (§1)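 Signal is read once the detection mix has stood 20 min at ambient temperature. Curves are anchored by DMSO as maximum and by omission of LCK as minimum.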
c-Cbl, sequence (P22681 47-435): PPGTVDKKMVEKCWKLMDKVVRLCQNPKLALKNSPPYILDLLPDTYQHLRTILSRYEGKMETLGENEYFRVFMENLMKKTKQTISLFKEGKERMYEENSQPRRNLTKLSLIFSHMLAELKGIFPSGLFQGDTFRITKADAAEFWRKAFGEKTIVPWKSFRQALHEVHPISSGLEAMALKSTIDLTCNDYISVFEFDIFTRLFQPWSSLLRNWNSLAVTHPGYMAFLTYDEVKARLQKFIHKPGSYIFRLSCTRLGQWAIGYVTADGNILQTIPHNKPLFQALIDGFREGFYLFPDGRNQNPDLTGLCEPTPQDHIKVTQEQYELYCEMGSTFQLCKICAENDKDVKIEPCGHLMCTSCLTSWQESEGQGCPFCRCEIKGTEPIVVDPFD
For orientation: TR-FRET usually uses a lanthanide donor and a delayed reading to cut background.

The target of the next test is Cbl-b (Homo sapiens (Human), UniProt Q13191). Put plainly: Cbl-b LCK Ub TR-FRET assay (Cbl-b Lck HTRF). The format is biochemical. To be noted: for IC50: Cbl-b LCK Ub TR-FRET; for fold-selectivity (Cbl-b over C-cbl): ratio C-cbl Lck HTRF IC50 / Cbl-b Lck HTRF IC50. A digest of the protocol:
as §1

Cbl-b, sequence (Q13191 40-426): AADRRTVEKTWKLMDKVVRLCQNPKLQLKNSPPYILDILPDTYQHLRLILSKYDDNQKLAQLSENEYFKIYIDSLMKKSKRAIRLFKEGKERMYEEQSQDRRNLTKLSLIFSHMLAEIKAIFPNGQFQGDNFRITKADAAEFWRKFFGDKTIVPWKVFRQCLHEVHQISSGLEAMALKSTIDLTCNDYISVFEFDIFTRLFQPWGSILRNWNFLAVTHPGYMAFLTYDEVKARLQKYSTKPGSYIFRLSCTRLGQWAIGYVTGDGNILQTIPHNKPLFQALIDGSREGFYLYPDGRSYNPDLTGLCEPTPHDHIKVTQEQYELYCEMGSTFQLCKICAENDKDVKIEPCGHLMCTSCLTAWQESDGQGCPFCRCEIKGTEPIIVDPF

At c-Cbl, `CCc1cc(C2(c3nncn3C)CC(F)(F)C2)cc(N2Cc3c(cc(CNC4(C)CCC4)cc3C(F)(F)F)C2=O)n1` [Compound 59, 2-(4-(3,3-difluoro-1-(4-methyl-4H-1,2,4-triazol-3-yl)cyclobutyl)-6-ethylpyridin-2-yl)-6-(((1-methylcyclobutyl)amino)methyl)-4-(trifluoromethyl)isoindolin-1-one] registered an IC50 of 17 nM. For the same compound, at Cbl-b, the IC50 is 18 nM and the “fold-selectivity (Cbl-b over C-cbl)” value was “(0.96x)”.
For `Cc1cc(C2(c3nncn3C)CC(F)(F)C2)cc(N2Cc3c(cc(CNC4(C)CCC4)cc3C(F)(F)F)C2=O)n1` [Compound 60, 2-(4-(3,3-difluoro-1-(4-methyl-4H-1,2,4-triazol-3-yl)cyclobutyl)-6-methylpyridin-2-yl)-6-(((1-methylcyclobutyl)amino)methyl)-4-(trifluoromethyl)isoindolin-1-one], in that order: 80 nM, 110 nM and “(0.73x)”.
For the compound `CCOc1cc([C@]2(c3nncn3C)C[C@@H](OC)C2)cc(N2Cc3c(cc(CNC4(C)CCC4)cc3C(F)(F)F)C2=O)n1` [Compound 76, 2-(6-ethoxy-4-((1S,3S)-3-methoxy-1-(4-methyl-4H-1,2,4-triazol-3-yl)cyclobutyl)pyridin-2-yl)-6-(((1-methylcyclobutyl)amino)methyl)-4-(trifluoromethyl)isoindolin-1-one], the IC50 against c-Cbl and against Cbl-b was 6.4 nM throughout. Also, the “fold-selectivity (Cbl-b over C-cbl)” value at Cbl-b is “(1.0x)”.
With `CCOc1cc([C@]2(c3nncn3C)C[C@H](OC)C2)cc(N2Cc3c(cc(CNC4(C)CCC4)cc3C(F)(F)F)C2=O)n1` [Compound 77, 2-(6-ethoxy-4-((1R,3R)-3-methoxy-1-(4-methyl-4H-1,2,4-triazol-3-yl)cyclobutyl)pyridin-2-yl)-6-(((1-methylcyclobutyl)amino)methyl)-4-(trifluoromethyl)isoindolin-1-one], it took 8.2 nM to reach half-maximal inhibition against c-Cbl (IC50). Besides, on Cbl-b, the IC50 stood at 8.2 nM and the “fold-selectivity (Cbl-b over C-cbl)” value is “(1.0x)”.
`CO[C@H]1C[C@@](c2cc(OC3CCCC3)nc(N3Cc4c(cc(CNC5(C)CCC5)cc4C(F)(F)F)C3=O)c2)(c2nncn2C)C1` [Compound 78, 2-(6-(cyclopentyloxy)-4-((1S,3S)-3-methoxy-1-(4-methyl-4H-1,2,4-triazol-3-yl)cyclobutyl)pyriidn-2-yl)-6-(((1-methylcyclobutyl)amino)methyl)-4-(trifluoromethyl)isoindolin-1-one]: half-maximal inhibition against c-Cbl (IC50) required 70 nM. Also, at Cbl-b, the 50% inhibitory concentration (IC50) came out at 14 nM and the “fold-selectivity (Cbl-b over C-cbl)” value is “(5.0x)”.
`CO[C@H]1C[C@](c2cc(OC3CCCC3)nc(N3Cc4c(cc(CNC5(C)CCC5)cc4C(F)(F)F)C3=O)c2)(c2nncn2C)C1` [Compound 79, 2-(6-(cyclopentyloxy)-4-((1R,3R)-3-methoxy-1-(4-methyl-4H-1,2,4-triazol-3-yl)cyclobutyl)pyridin-2-yl)-6-(((1-methylcyclobutyl)amino)methyl)-4-(trifluoromethyl)isoindolin-1-one] displayed a half-maximal inhibitory concentration (IC50) on c-Cbl of 237 nM. Moreover, on Cbl-b, the IC50 stood at 32 nM and the “fold-selectivity (Cbl-b over C-cbl)” value is listed as “(7.4x)”.
At c-Cbl, `Cn1cnnc1C1(c2cccc(N3Cc4c(cc(CNC5(C)CCC5)cc4C(F)(F)F)C3=O)c2)CC2(CC(=O)C2)C1` [Compound 92, 2-(3-(2-(4-methyl-4H-1,2,4-triazol-3-yl)-6-oxospiro[3.3]heptan-2-yl)phenyl)-6-(((1-methylcyclobutyl)amino)methyl)-4-(trifluoromethyl)isoindolin-1-one] registered a half-maximal inhibitory concentration (IC50) of 29 nM. For the same compound, on Cbl-b, the 50% inhibitory concentration (IC50) is 13 nM and the “fold-selectivity (Cbl-b over C-cbl)” value is recorded as 2.2x.
For `Cn1cnnc1C1(c2cccc(N3Cc4c(cc(CNC5(C)CCC5)cc4C(F)(F)F)C3=O)c2)CC2(CC(O)C2)C1` (stereo not drawn) [Compound 93, 2-(3-(6-hydroxy-2-(4-methyl-4H-1,2,4-triazol-3-yl)spiro[3.3]heptan-2-yl)phenyl)-6-(((1-methylcyclobutyl)amino)methyl)-4-(trifluoromethyl)isoindolin-1-one] the same measures were 900 nM, 120 nM and 7.3x.
For the compound `CC(=O)N1CC2(C1)CC(c1cccc(N3Cc4c(cc(CNC5(C)CCC5)cc4C(F)(F)F)C3=O)c1)(c1nncn1C)C2` [Compound 97, 2-(3-(2-acetyl-6-(4-methyl-4H-1,2,4-triazol-3-yl)-2-azaspiro[3.3]heptan-6-yl)phenyl)-6-(((1-methylcyclobutyl)amino)methyl)-4-(trifluoromethyl)isoindolin-1-one], the IC50 against c-Cbl came out at 16000 nM. Moreover, at Cbl-b, it took 5200 nM to reach half-maximal inhibition (IC50) and the “fold-selectivity (Cbl-b over C-cbl)” value worked out at 3.1x.
Consider `Cn1cnnc1C1(c2cccc(N3Cc4c(cc(CNC5(C)CCC5)cc4C(F)(F)F)C3=O)c2)CC2(CN(S(C)(=O)=O)C2)C1` [Compound 98, 2-(3-(6-(4-methyl-4H-1,2,4-triazol-3-yl)-2-(methylsulfonyl)-2-azaspiro[3.3]heptan-6-yl)phenyl)-6-(((1-methylcyclobutyl)amino)methyl)-4-(trifluoromethyl)isoindolin-1-one], for which the half-inhibitory concentration (IC50) against c-Cbl is 7500 nM; against Cbl-b, 1300 nM. For the same compound, the “fold-selectivity (Cbl-b over C-cbl)” value at Cbl-b came to 5.8x.
Compound `Cn1cnnc1[C@]1(c2cccc(N3Cc4c(cc(CNC5(C)CCC5)cc4C(F)(F)F)C3=O)c2)C[C@](F)(CF)C1` [Compound 105, 2-(3-((1r,3r)-3-fluoro-3-(fluoromethyl)-1-(4-methyl-4H-1,2,4-triazol-3-yl)cyclobutyl)phenyl)-6-(((1-methylcyclobutyl)amino)methyl)-4-(trifluoromethyl)isoindolin-1-one] had an IC50 at c-Cbl of 54 nM. Also, at Cbl-b, the half-inhibitory concentration (IC50) worked out at 15 nM and the “fold-selectivity (Cbl-b over C-cbl)” value was found to be 3.7x.
At c-Cbl, `Cn1cnnc1[C@H](c1cccc(N2Cc3c(cc(CNC4(C)CCC4)cc3C(F)(F)F)C2=O)c1)C1CC2(COC2)C1` [Compound 121, (S)-2-(3-((4-methyl-4H-1,2,4-triazol-3-yl)(2-oxaspiro[3.3]heptan-6-yl)methyl)phenyl)-6-(((1-methylcyclobutyl)amino)methyl)-4-(trifluoromethyl)isoindolin-1-one] registered a half-inhibitory concentration (IC50) of 20000 nM. For the same compound, at Cbl-b, the concentration for half-maximal inhibition (IC50) worked out at 11000 nM and the “fold-selectivity (Cbl-b over C-cbl)” value was 1.7x.
`Cn1cnnc1[C@@H](c1cccc(N2Cc3c(cc(CNC4(C)CCC4)cc3C(F)(F)F)C2=O)c1)C1CC2(COC2)C1` [Compound 122, (R)-2-(3-((4-methyl-4H-1,2,4-triazol-3-yl)(2-oxaspiro[3.3]heptan-6-yl)methyl)phenyl)-6-(((1-methylcyclobutyl)amino)methyl)-4-(trifluoromethyl)isoindolin-1-one] had an IC50 at c-Cbl of 2100 nM. In addition, on Cbl-b, the IC50 was 1400 nM and the “fold-selectivity (Cbl-b over C-cbl)” value is 1.6x.
On to `Cn1cnnc1[C@@H](c1cccc(N2Cc3c(cc(CNC4(C)CCC4)cc3C(F)(F)F)C2=O)c1)[C@@H]1CCOC1` [Compound 168, 2-(3-((R)-(4-methyl-4H-1,2,4-triazol-3-yl)((S)-tetrahydrofuran-3-yl)methyl)phenyl)-6-(((1-methylcyclobutyl)amino)methyl)-4-(trifluoromethyl)isoindolin-1-one], for which, at c-Cbl, inhibition was half-maximal at 34 nM (IC50). Besides, at Cbl-b, the IC50 came to 23 nM and the “fold-selectivity (Cbl-b over C-cbl)” value was found to be 1.5x.
For `Cn1cnnc1C1(c2cccc(N3Cc4c(cccc4C(F)(F)F)C3=O)c2)CC2(COC2)C1` [Compound 191, 2-(3-(6-(4-methyl-4H-1,2,4-triazol-3-yl)-2-oxaspiro[3.3]heptan-6-yl)phenyl)-4-(trifluoromethyl)isoindolin-1-one], in that order: 9700 nM, 5700 nM and 1.7x.
Turning to `Cn1cnnc1C1(c2cccc(N3Cc4c(cc(CNC5(C)CCC5)cc4C(F)(F)F)C3=O)c2)CC2(CN(C3COC3)C2)C1` [Compound 199, 2-(3-(6-(4-methyl-4H-1,2,4-triazol-3-yl)-2-(oxetan-3-yl)-2-azaspiro[3.3]heptan-6-yl)phenyl)-6-(((1-methylcyclobutyl)amino)methyl)-4-(trifluoromethyl)isoindolin-1-one], the IC50 against c-Cbl was determined as 20000 nM; at Cbl-b it was 15000 nM. In addition, the “fold-selectivity (Cbl-b over C-cbl)” value on Cbl-b is listed as 1.4x.
For `CO[C@H]1C[C@@](c2cc(C)cc(N3Cc4c(cc(CNC5(C)CCC5)cc4C(F)(F)F)C3=O)c2)(c2nncn2C)C1` [Compound 237, 2-(3-((1s,3s)-3-methoxy-1-(4-methyl-4H-1,2,4-triazol-3-yl)cyclobutyl)-5-methylphenyl)-6-(((1-methylcyclobutyl)amino)methyl)-4-(trifluoromethyl)isoindolin-1-one], at c-Cbl, half-maximal inhibition (IC50) required 390 nM. Moreover, on Cbl-b, the IC50 was 340 nM and the “fold-selectivity (Cbl-b over C-cbl)” value came to 1.2x.
`Cn1cnnc1[C@@H](CC1COC1)c1cccc(N2Cc3c(cc(CNC4(C)CCC4)cc3C(F)(F)F)C2=O)c1` [Compound 244, (S)-2-(3-(1-(4-methyl-4H-1,2,4-triazol-3-yl)-2-(oxetan-3-yl)ethyl)phenyl)-6-(((1-methylcyclobutyl)amino)methyl)-4-(trifluoromethyl)isoindolin-1-one]: the values for the IC50 against c-Cbl and on Cbl-b were 3600 nM and 3100 nM, respectively. Moreover, the “fold-selectivity (Cbl-b over C-cbl)” value at Cbl-b came out at 1.2x.
For `Cn1cnnc1[C@H](CC1COC1)c1cccc(N2Cc3c(cc(CNC4(C)CCC4)cc3C(F)(F)F)C2=O)c1` [Compound 245, (R)-2-(3-(1-(4-methyl-4H-1,2,4-triazol-3-yl)-2-(oxetan-3-yl)ethyl)phenyl)-6-(((1-methylcyclobutyl)amino)methyl)-4-(trifluoromethyl)isoindolin-1-one] the same measures were 110 nM, 49 nM and 2.2x.
